{"source": "paper PMC10641817", "about": "“Ligand Sulfur Oxidation State Progressively Alters Galectin-3-Ligand Complex Conformations To Induce Affinity-Influencing Hydrogen Bonds” (Journal of Medicinal Chemistry, 2023)", "key": {"[1]": {"experiment": "solubility in attempts at crystallographic structural analyses", "assay_type": "physicochemical", "conditions": "for crystallography with galectin-3C"}, "galectin-3 R144K": {"biological_target": "galectin-3 R144K (Homo sapiens, UniProt P17931, R144K)", "sequence (P17931 whole entry R144K)": "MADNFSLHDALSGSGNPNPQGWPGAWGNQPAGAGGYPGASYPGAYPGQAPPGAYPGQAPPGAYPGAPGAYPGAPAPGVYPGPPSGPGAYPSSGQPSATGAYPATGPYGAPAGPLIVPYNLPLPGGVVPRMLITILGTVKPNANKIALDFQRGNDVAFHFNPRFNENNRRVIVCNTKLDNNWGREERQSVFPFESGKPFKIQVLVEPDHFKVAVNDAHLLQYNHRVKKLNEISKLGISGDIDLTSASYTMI", "experiment": "competitive fluorescence polarization assay, galectin-3 R144K mutant", "assay_type": "binding", "experimental": "(§1) Fluorescence polarization experiments were carried out either with a POLARStar plate reader and FLUOstar Galaxy software or with a PheraStarFS plate reader and PHERAstar Mars version 2.10 R3 software (BMG, Offenburg, Germany). The dissociation constant (Kd) values were determined in PBS as described earlier.[13],[18] Compounds were dissolved in neat DMSO at 20 mM and diluted in PBS to 3–6 different concentrations to be tested in duplicate. Average Kd values and SEMs were calculated from 2 to 8 single-triple point measurements showing between 20 and 80% inhibition."}, "galectin-3 R144S": {"biological_target": "galectin-3 R144S (Homo sapiens, UniProt P17931, R144S)", "sequence (P17931 whole entry R144S)": "as the sequence (P17931 whole entry R144K) above, with K144S counted along it", "experiment": "competitive fluorescence polarization assay, galectin-3 R144S mutant", "assay_type": "binding", "experimental": "as §1"}, "Galectin-3 Wild-Type": {"biological_target": "Galectin-3 Wild-Type (Homo sapiens, UniProt P17931)", "sequence (P17931 whole entry)": "as the sequence (P17931 whole entry R144K) above, with K144R counted along it", "experiment": "competitive fluorescence polarization assay, galectin-3 wild-type", "assay_type": "binding", "experimental": "as §1, with “duplicate.” for “duplicate. Average Kd values and SEMs were calculated from 2 to 8 single-triple point measurements showing between 20 and 80% inhibition.”"}, "[2]": {"biological_target": "T1, galectin-3C (the C-terminal domain of galectin-3) (Homo sapiens, UniProt P17931)", "T1 construct": "galectin-3C (the C-terminal domain of galectin-3)", "T1 sequence (P17931 118-248 limits assumed)": "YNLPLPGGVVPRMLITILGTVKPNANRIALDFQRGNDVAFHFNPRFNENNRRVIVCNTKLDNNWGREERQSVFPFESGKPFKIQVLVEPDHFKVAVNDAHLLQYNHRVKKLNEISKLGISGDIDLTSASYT", "experiment": "isothermal titration calorimetry (ITC) with galectin-3C", "assay_type": "binding", "conditions": "301 K", "experimental": "Stock solutions of the ligands were prepared in a buffer at 5 mM. The ligands were diluted with buffer to concentrations between 2 and 3 mM. […] All thermograms were integrated using NITPIC, the titration curves were fitted using SEDPHAT with error estimates using the automatic confidence interval search with projection method, and all figures were made in GUSSI."}}, "note": "Several values for one entry are separate records, joined by “and”; a condition that tells them apart may be missing. Equal values may be shown once."}
{"smiles": "Cc1ccc(S[C@@H]2O[C@H](CO)[C@H](O)[C@H](n3cc(S(=O)(=O)c4ccccc4)nn3)[C@H]2O)cc1", "note": "[4c, p-Methylphenyl 3-deoxy-3-[4-phenylsulfonyl-1H-1,2,3-triazole-1yl] 1-thio-β-D-galactopyranoside]", "values": [{"measurement": "solubility", "setting": "[1]", "result": "insufficient solubility"}, {"measurement": "Kd", "setting": "galectin-3 R144K", "result": "250 ± 6", "unit": "µM"}, {"measurement": "Kd", "setting": "galectin-3 R144S", "result": "600 ± 80", "unit": "µM"}]}
{"smiles": "Cc1ccc(S[C@@H]2O[C@H](CO)[C@H](O)[C@H](n3cc([S+]([O-])c4ccccc4)nn3)[C@H]2O)cc1", "note": "(stereo partly drawn) [4b, p-Methylphenyl 3-deoxy-3-[4-phenylsulfinyl-1H-1,2,3-triazole-1yl] 1-thio-β-D-galactopyranoside]", "values": [{"measurement": "solubility", "setting": "[1]", "result": "insufficient solubility"}, {"measurement": "inhibition at the highest tested concentration", "setting": "Galectin-3 Wild-Type; 2 mM, fluorescence polarization, galectin-3", "result": "b Weak inhibition at the highest tested concentration of 4b (2 mM) did not allow for accurate determination of the Kd value."}, {"measurement": "Kd", "setting": "Galectin-3 Wild-Type; Table 1, galectin-3 wild-type, fluorescence polarization in PBS", "result": "> 600", "unit": "µM"}]}
{"smiles": "[O-][S+](c1ccccc1)c1cn([C@H]2[C@@H](O)[C@@H](CO)O[C@@H](S[C@@H]3O[C@H](CO)[C@@H](O)[C@H](O)[C@H]3O)[C@@H]2O)nn1", "note": "(stereo partly drawn) [6b, 3′-Deoxy-3′-[4-phenylsulfinyl-1H-1,2,3-triazol-1-yl] -β-D-galactopyranosyl-1-thio-β-D-glucopyranoside]", "values": [{"measurement": "Kd", "setting": "[2]", "result": "94.2 µM and 94 µM"}]}
{"smiles": "Cc1ccc(S[C@@H]2O[C@H](CO)[C@H](O)[C@H](n3cc(Sc4ccccc4)nn3)[C@H]2O)cc1", "note": "[4a, p-Methylphenyl 3-deoxy-3-[4-phenylsulfane-1H-1,2,3-triazol-1-yl] 1-thio-β-D-galactopyranoside]", "values": [{"measurement": "solubility", "setting": "[1]", "result": "insufficient solubility"}]}
